Reference: patent publication US9962341B2, “Active pharmaceutical ingredient (API) comprising cannabinoids for use in the treatment of cancer” (GW Pharma Limited, priority 2014, dated 2018)
Like-named read-outs stand apart in the source and are kept apart here.

Columns and labels:
Assay type in all cases: cell-based
[1] = test system: A375; assay: Cell viability (CellTiter-Blue, 72 h), A375 melanoma cells; details: Homo sapiens, A-375, A375, 1% FBS
Procedure: (§1) The following cell lines were tested in this example: Lung Cancer (A549, NCI-H460); Pancreatic cancer (PANC1, Mia-Pa-Ca-2); Melanoma (WM115, A375); Ovarian cancer (OVCAR3, SKOV3); Gastric cancer (MKN45, HGC-27); Renal cancer (ACHN) and Bladder Cancer (RT112).
(§2) Each tumour cell line was maintained in vitro in RPMI 1640+10% heat inactivated FBS and 2 mM L-glutamine (growth media) at 37° C. in 5% CO2 and humidified conditions. The cells were harvested, washed, re-suspended into growth medium and counted. The cells were re-suspended into assay media (RPMI 1640+5% heat inactivated FBS+ and 2 mM L-glutamine) at 4×10^4 cells/ml (dependent upon cell type) and plated into the middle 240 wells of 384 well tissue culture plates (Corning CellBind, black-wall plates) 25 μl/well aliquots; 50 μl of growth media was aliquoted into the outer wells. There were 3 plates for each cell line.
(§3) The plates were incubated overnight at 37° C., in 5% humidified CO2.
(§4) The phytocannabinoid test compounds were prepared in 100% DMSO vehicle at a stock concentration of 20 and 40 mM.
(§5) Starting with the 20 mM stock in DMSO, this was serially diluted (2 fold) in DMSO in a 96-well plate, to 20 (no dilution), 10, 5, 2.5, 1.25, 0.625, 0.315, 0.157 and […]. Following this, 10 ul of each compound dilution was diluted into 990 ul of 1% (v/v) FBS media in a deep well block making the final concentrations of 200, 100, 50, 25, 12.5, 6.25, 3.125, 1.56 and 0.79 μM (2× final assay concentrations and 1% DMSO).
(§6) An equal volume of each cannabinoid in the combination (stock concentration 40 mM) was mixed together to make a stock of 20 mM of each cannabinoid in DMSO. This was serially diluted (2 fold) in DMSO in a 96-well plate, to 20 (no dilution), 10, 5, 2.5, 1.25, 0.625, 0.315, 0.157 and […]. Following this, 10 ul of each combination dilution was diluted into 990 ul of 1% (v/v) FBS media in a deep well block making the final concentrations of 200, 100, 50, 25, 12.5, 6.25, 3.125, 1.56 and 0.79 μM (2× final assay concentrations and 1% DMSO).
(§7) Cisplatin (stock of 1 mg/ml=3.33 mM in water) was diluted in 1% FBS media to give a stock concentration of 1 mM. This was then diluted in 1% FBS media from the stock solution to 200 μM, then serially diluted (3-fold) in 1% FBS media to 200 (no dilution), 66.66, 22.22, 7.41, 2.47, 0.82, 0.27, 0.09, 0.03 μM (2× final assay concentrations; no DMSO).
(§8) The plates were incubated for 72 h at 37° C. in 5% humidified CO2. To develop the plates, at 72 h, 10 μl of CellTiter-Blue™ reagent was added to each test/blank well.
(§9) The plates were incubated at 37° C., 5% humidified CO2. Fluorescence was measured using a Flex II Station plate reader (570 nm excitation wavelength, 600 nm emission wavelength, 590 nm cut-off) after 3 h.
(§10) The phytocannabinoid compounds CBD, CBGA, CBG, CBDA, THCV and THC were tested on a panel of lung (A549, NCI-H460), pancreatic (PANC1, Mia-Pa-Ca-2), melanoma (WM115, A375), ovarian (OVCAR3, SKOV3), gastric (MKN45, HGC-27), renal (ACHN) and bladder (RT112) cancer cell lines according to the protocol for 72 h in media containing 1% FBS.
(§11) The IC50 values for each phytocannabinoid and combination of CBD with the other phytocannabinoids was calculated for each cell line. The raw data values expressed in relative fluorescent units were normalised to the vehicle for each individual plate and any reduction in fluorescence indicated a decrease in viability.
(§12) This calculation was as described in Example 1 above.

[2] = test system: ACHN; assay: Cell viability (CellTiter-Blue, 72 h), ACHN renal cancer cells; details: Homo sapiens
Procedure: as §1, §2, §3, §4, §5, §6
Taxotere SOC was prepared in 100% DMSO to give a stock concentration of 10 mM. This was diluted in DMSO from the stock solution to 200 μM, then serially diluted (3-fold) in DMSO to 200 (no dilution), 66.66, 22.22, 7.41, 2.47, 0.82, 0.27, 0.09, 0.03 μM. 10 ul of each of the taxotere dilutions was diluted in 990 ul of 1% (v/v) FBS media making the final concentrations of 2, 0.67, 0.22, 0.074, 0.0247, 0.0082, 0.0027 0.0009, 0.0003 μM (2× final assay concentrations and 1% DMSO).
as §8, §9, §10, §11, §12

[3] = test system: PANC-1; assay: Cell viability (CellTiter-Blue, 72 h), PANC-1 pancreatic cancer cells; details: Homo sapiens, PANC-1, 1% FBS
Procedure: as §1, §2, §3, §4, §5, §6
(§13) Gemcitabine SOC was prepared in 100% DMSO to give a stock concentration of 20 mM. This was then serially diluted (3 fold) in DMSO in a 96-well plate, to 20 (no dilution), 6.6, 2.2, 0.741, 0.247, 0.082, 0.027, 0.009 and 0.003 mM. Following this, 10 ul of each dilution was further diluted into 990 ul of 1% (v/v) FBS media making the final concentrations of 200 (no dilution), 66.66, 22.22, 7.41, 2.47, 0.82, 0.27, 0.09, 0.03 μM (2× final assay concentrations and 1% DMSO).
as §8, §9, §10, §11, §12

[4] = test system: WM115; assay: Cell viability (CellTiter-Blue, 72 h), WM115 melanoma cells; details: Homo sapiens, WM-115, WM115, 1% FBS
Procedure: as §1, §2, §3, §4, §5, §6, §7, §8, §9, §10, §11, §12

[5] = test system: Mia-Pa-Ca-2; assay: Cell viability (CellTiter-Blue, 72 h), Mia-Pa-Ca-2 pancreatic cancer cells; details: Homo sapiens
Procedure: as §1, §2, §3, §4, §5, §6, §13, §8, §9, §10, §11, §12

[6] = test system: RT112; assay: Cell viability (CellTiter-Blue, 72 h), RT112 bladder cancer cells; details: Homo sapiens, RT-112
Procedure: as §1, §2, §3, §4, §5, §6, §7, §8, §9, §10, §11, §12

[7] = test system: SKOV3; assay: Cell viability (CellTiter-Blue, 72 h), SKOV3 ovarian cancer cells; details: Homo sapiens, SK-OV-3
Procedure: as §1, §2, §3, §4, §5, §6, §7, §8, §9, §10, §11, §12

[8] = 72 h, read-out: Cell line IC50 value
[9] = read-out: Dm (median effect dose)
[10] = read-out: Dm (potency, median effect)
[11] = MIA PaCa-2, 72 h, read-out: Cell line IC50 value
[12] = MIA PaCa-2, read-out: Dm (median effect dose)
[13] = RT112, 1% FBS, 72 h, read-out: Cell line IC50 value
[14] = RT112 cells, 1% FBS, read-out: Dm (potency, median effect)
[15] = SKOV3, 1% FBS, 72 h, read-out: Cell line IC50 value
[16] = SKOV3 cells, 1% FBS, read-out: Dm (potency, median effect)

SMILES	IC50 [1, 8] [µM]	IC50 [1, 9] [µM]	IC50 [2, 8] [µM]	IC50 [2, 10] [µM]	IC50 [3, 8] [µM]	IC50 [3, 9] [µM]	IC50 [4, 8] [µM]	IC50 [4, 9] [µM]	IC50 [5, 11] [µM]	IC50 [5, 12] [µM]	IC50 [6, 13] [µM]	IC50 [6, 14] [µM]	IC50 [7, 15] [µM]	IC50 [7, 16] [µM]
CCCc1cc(O)c2c(c1)OC(C)(C)[C@@H]1CCC(C)=C[C@@H]21 [THCV, Tetrahydrocannabivarin]	5	5.54	6.8	6.76	6.5	6.46	6.5	6.43	5.2	4.79	4.7	4.75	6.5	6.58
C=C(C)[C@@H]1CCC(C)=C[C@H]1c1c(O)cc(CCCCC)c(C(=O)O)c1O [CBDA, Cannabidiolic acid]	10.2	9.78	10.7	8.44	13.1	12.6	2.1	14.7	7.9	7.09	8.2	6.36	1.3	10.6
CCCCCc1cc(O)c(C/C=C(\C)CCC=C(C)C)c(O)c1C(=O)O [CBGA, Cannabigerolic acid]	7.3	6.66	11.6	12	8.5	8.82	1.5	12.9	8.9	8.67	9.8	9.72	7.9	8.64
C=C(C)[C@@H]1CCC(C)=C[C@H]1c1c(O)cc(CCCCC)cc1O [CBD, Cannabidiol]	2.9	2.66	3.3	3.11	3	2.92	2.4	2.77	2.6	2	2	1.79	3.1	3.17
CCCCCc1cc(O)c(C/C=C(\C)CCC=C(C)C)c(O)c1 [CBG, Cannabigerol]	2.1	1.89	3	2.96	3.1	2.88	3.1	3.1	2.2	2.06	2.5	2.14	5.5	4.75
CC(=O)O[C@@]12CO[C@@H]1C[C@H](O)[C@@]1(C)C(=O)[C@H](O)C3=C(C)[C@@H](OC(=O)[C@H](O)[C@@H](NC(=O)OC(C)(C)C)c4ccccc4)C[C@@](O)([C@@H](OC(=O)c4ccccc4)[C@H]21)C3(C)C [Taxotere, Docetaxel, reference compound]	–	–	0.0018	–	–	–	–	–	–	–	–	–	–	–
CCCCCc1cc(O)c2c(c1)OC(C)(C)[C@@H]1CCC(C)=C[C@@H]21 [THC, Tetrahydrocannabinol, reference compound]	2.7	2.47	3.6	4.4	3	3.15	2.9	3.17	2.9	2.64	3.6	3.09	5.3	4.56
